The subject of one series is acetic acid writhing. Description: Acetic acid writhing test, analgesic activity. The format is in vivo, rat. The method, then:
The acetic acid writhing test was used to assess the analgesic activity in rats (reference drug sodium acetylsalicylate, at 1 mmol/kg, 93.4%). The inhibitors were given ip and 30 min later 1 mL/100 g body weight of 0.6% acetic acid was given ip.

The next series deals with P388D1 cells. Description: PGE2 release from stimulated P388D1 macrophages. Conditions: for inhibition at 50 µM / IC50: Mus musculus; for inhibition at 50 µM: LPS 1 hour then PAF 15 min, maximal dosage tested 50 μM; for IC50: LPS 18 hr, inhibitor added 30 min prior to stimulation; for Block of PGE2 release: long-term LPS stimulation, 50 μM inhibitor, result in words. The format is cell-based, murine. The method, then:
cPLA2 and iPLA2 are expressed in macrophage cells. It was therefore of interest to determine if the PLA2 inhibitors of the invention acted on either or both of cPLA2 and iPLA2 in macrophages. To that end, P388D1 murine macrophages were maintained at 37° C. in a humidified 10% CO2 atmosphere. Cells were grown in Iscove's Modified Dulbecco's Medium (IMDM with 10% fetal calf serum (HyClone Labs, Provo Utah), 100 units/mL penicillin and 100 μg/mL streptomycin (Invitrogen, Carlsbad Calif.). Cells were routinely passaged every 2-3 days when the cells reached 75-80% confluence. Cells used for stimulation were plated at a density of 10^6 cells per well in standard 12 well tissue culture plates and were allowed to adhere overnight.
Macrophages were stimulated by treating P338D1 cells with either lipopolysaccharide (LPS) alone or LPS combined with platelet activating factor (PAF). Briefly, cells were washed twice with starvation media (IMDM containing 0.2% fetal calf serum, 100 units/mL penicillin and 100 μg/mL streptomycin) and then incubated with 1 mL of starvation media for one hour. Cells were then exposed to either 100 ng/mL LPS for 18 hours or 200 ng/mL LPS for one hour. Cells treated with 200 ng/mL LPS were then exposed to 100 nM PAF for 15 minutes. At the end of the stimulation, the media was removed from the cells, cleared of cellular debris by centrifugation and analyzed for prostaglandin E2 (PGE2) levels by enzyme-linked immunoassay (Cayman Chemical, Ann Arbor Mich.).
Inhibitor compounds were dissolved in DMSO and diluted into starvation media prior to addition to cells; the DMSO concentration was kept below 0.5% v/v in all studies. All inhibitors were added 30 minutes prior to stimulation.

The target of a further series is T1, cPLA2 (Homo sapiens, UniProt P47712).
T1 sequence (P47712 1-749): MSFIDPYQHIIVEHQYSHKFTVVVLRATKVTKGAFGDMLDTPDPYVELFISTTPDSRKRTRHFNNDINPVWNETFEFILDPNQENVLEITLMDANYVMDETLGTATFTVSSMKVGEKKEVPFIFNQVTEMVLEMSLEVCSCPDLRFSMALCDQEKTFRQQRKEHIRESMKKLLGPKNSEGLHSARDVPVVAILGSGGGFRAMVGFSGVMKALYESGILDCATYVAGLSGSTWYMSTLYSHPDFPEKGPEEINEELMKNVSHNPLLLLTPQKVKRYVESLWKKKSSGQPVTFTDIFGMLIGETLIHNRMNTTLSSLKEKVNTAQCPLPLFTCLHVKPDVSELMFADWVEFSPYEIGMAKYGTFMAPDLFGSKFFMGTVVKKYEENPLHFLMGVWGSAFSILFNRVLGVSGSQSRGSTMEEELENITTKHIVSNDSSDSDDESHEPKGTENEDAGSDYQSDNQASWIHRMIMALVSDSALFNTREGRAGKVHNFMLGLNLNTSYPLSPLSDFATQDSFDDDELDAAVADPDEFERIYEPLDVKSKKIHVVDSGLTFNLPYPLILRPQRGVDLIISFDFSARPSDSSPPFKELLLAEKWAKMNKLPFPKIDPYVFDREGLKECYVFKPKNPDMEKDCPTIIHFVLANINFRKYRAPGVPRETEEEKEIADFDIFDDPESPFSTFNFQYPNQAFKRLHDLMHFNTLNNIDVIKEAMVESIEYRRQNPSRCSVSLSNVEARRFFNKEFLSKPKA
Description: cPLA2 activity on TX-100/PAPC mixed micelles, inhibition by 2-oxoamides. The class given is biochemical. The note with it: for Inhibition of cPLA2: result in words.

Series [1] deals with carrageenan-induced paw edema. Description: Rat carrageenan-induced paw edema assay, ip, acute inflammation. The class given is in vivo. The note with it: after 3.5 h; for ED50: Rattus norvegicus, carrageenin paw edema test, ip. The method, then: The experiments were conducted on Fisher 344 female rats weighing 200-260 g. Acute anti-inflammatory activity was measured after 3.5 h by reduction of rat paw carrageenan edema, induced by injection of 0.1 mL carrageenan 2% (K100, commercially available) in sterilized saline intradermally into the right footpad. The examined compounds were administered intraperitoneally (ip) simultaneously. Control animals accepted only vehicle.
In general terms: In the carrageenan paw model, swelling and tenderness develop within hours.

A further series deals with spontaneous movement. The note with it: rat, in vivo.
In series [2] the test system is formalin induced flinching. Description: Formalin induced flinching. The class given is in vivo, rat. Conditions: intrathecal pretreatment 10 min; result in words.
In a further series the target is T2, iPLA2 (Homo sapiens, UniProt O60733).
T2 sequence (O60733 1-806): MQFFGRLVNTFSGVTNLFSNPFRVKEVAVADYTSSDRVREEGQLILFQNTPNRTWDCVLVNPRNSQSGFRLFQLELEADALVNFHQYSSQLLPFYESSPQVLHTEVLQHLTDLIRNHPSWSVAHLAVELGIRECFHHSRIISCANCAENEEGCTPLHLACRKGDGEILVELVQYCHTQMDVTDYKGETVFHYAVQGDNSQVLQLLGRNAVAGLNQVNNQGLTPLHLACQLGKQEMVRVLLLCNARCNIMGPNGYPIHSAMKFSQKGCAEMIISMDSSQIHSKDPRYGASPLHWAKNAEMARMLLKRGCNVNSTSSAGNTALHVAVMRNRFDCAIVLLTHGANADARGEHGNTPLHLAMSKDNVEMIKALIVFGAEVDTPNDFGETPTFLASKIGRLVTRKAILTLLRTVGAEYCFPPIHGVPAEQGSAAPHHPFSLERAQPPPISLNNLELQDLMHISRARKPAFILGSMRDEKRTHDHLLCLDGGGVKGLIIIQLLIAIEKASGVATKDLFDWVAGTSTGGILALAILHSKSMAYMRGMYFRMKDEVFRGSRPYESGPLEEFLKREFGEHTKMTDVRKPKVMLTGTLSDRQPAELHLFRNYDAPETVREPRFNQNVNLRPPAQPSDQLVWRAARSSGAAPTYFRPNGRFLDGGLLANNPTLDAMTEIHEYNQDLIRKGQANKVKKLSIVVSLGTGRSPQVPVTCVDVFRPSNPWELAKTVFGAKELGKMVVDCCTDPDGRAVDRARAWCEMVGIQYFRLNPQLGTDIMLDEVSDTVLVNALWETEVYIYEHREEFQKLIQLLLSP
Description: iPLA2 activity mixed micelle assay, inhibition by 2-oxoamides. The note with it: Table 4. The class given is biochemical. An excerpt:
All of the data above are provided with respect to XI(50), which is the mole fraction of inhibitor in the total substrate interface required to inhibit the enzyme by 50%. Almost all inhibitors of PLA2's partition into the phospholipid surface, because they usually have a hydrophobic nature that helps them bind to the active site of the PLA2. When these inhibitors partition into the surface, an important physical effect called surface dilution comes into play. In this case, the strength of the interaction of PLA2 and an inhibitor depends not on the bulk concentration of the inhibitor (molar units), but on the surface concentration of the inhibitor (mole fraction units).
PLA2 Activity Assays: Following homoginization and centrifugation, the spinal cord supernatants were assayed for cPLA2 or iPLA2 activity using the group specific assays developed in our laboratory (Yang et al., Biochem; 269: 278-288, 1999). Briefly the cPLA2 assay conditions were: 100 μM lipid PAPC/PIP2 (97/3) doping with 1% ^14C labeled PAPC in 400 μM triton X-100 mixed micelles, 100 mM Hepes, pH 7.5, 0.08 mM CaCl2, 0.1 mg/ml BSA and 2 mM DTT. iPLA2 assay conditions were: 100 μM DPPC doping with 1% ^14C labeled DPPC in 400 μM triton X-100 mixed micelles, 100 mM Hepes, pH 7.5, 5 mM EDTA, and 1 mM ATP. The total volume for each assay is 500 μL: 200 μL lipid, 250 μL assay buffer, 50 μL sample. In each case the amount of calcium or EDTA added was adjusted to account for the addition of EDTA in the lysis buffer to give the final concentrations listed above.
Lipid preparation: Lipid was dried under N2 and lyopholized for at least one hour to remove all traces of chloroform. Lipid was then resuspended in […] and triton X-100 and micelles were created by repeated vortexing and heating in hot water until the solution clarified. Samples were incubated with substrate for one hour at 40° C. The assay was then terminated and fatty acid extracted by the modified Dole assay. The amount of radioactive fatty acid released in the assay was determined by scintillation counting. Following analysis the data for the cPLA2 assay was adjusted for contaminating iPLA2 activity as described by Yang, et al. (Yang, et al., Anal. Biochem. 269: 278-288 (1999).

The mark [3] stands for this setting: mixed micelles TX-100 400 μM, PAPC 97 μM, PIP2 3 μM (0.6 mole %).

This is an account of results in US7745489B2, “Compositions and methods for inhibition of phospholipase A2 mediated inflammation” (The Regents of the University of California, priority 2002, dated 2010).

“And” between values parts separate entries of the source, which are not always exact repeats. Equal values may be shown once. Read-outs that look alike come from different tables or passages of the source.

In turn, `CCCCCCCCCCC(=O)C(=O)N[C@@H](CCCC)CCC(=O)O` [OA4, (4S)-4-[(2-Oxododecanoyl)amino]octanoic acid] showed a melting point of 50 to 52 °C. Also, the Analgesic activity in the series with acetic acid writhing (ip dose of 0.1 mmol/kg) is given as 63%. Besides, in the series with P388D1 cells, the inhibition at 50 µM is around 60%, 5.8 µM corresponded to half-maximal inhibition (IC50) and the “Block of PGE2 release” value is given as “completely block”. Moreover, the “XI(50) (mole fraction)” value at cPLA2 (Table 2, iPLA2) turned out to be 0.009 ± 0.004 mole fraction. For the same compound, at cPLA2 (setting [3]), the “XI(50)” value is 0.009±0.004 mole fraction and 0.009 mole fraction. Moreover, at cPLA2 (mixed micelles TX-100 3 mM, PAPC 1 mM, no PIP2 present), the “XI(50)” value was determined as 0.0027±0.0012 mole fraction. In addition, the “Inhibition of cPLA2” value on cPLA2 was “quite potent”. In addition, the ED50 in series [1] is 100 µmol/kg.

`CCCCCCCCCCCCCCC(=O)C(=O)NCCCC(=O)O` [OA1, 4-[(2-oxohexadecanoyl)amino]butanoic acid] displayed an Analgesic activity with acetic acid writhing (ip dose of 0.01 mmol/kg) of 92.7%. Besides, in the series with P388D1 cells, the inhibition at 50 µM is around 60%, the IC50 turned out to be 7.8 µM and the “Block of PGE2 release” value is on record as “completely block”. The “XI(50) (mole fraction)” value at cPLA2 (Table 2, iPLA2) was 0.017 ± 0.009 mole fraction. For the same compound, the “XI(50)” value at cPLA2 (setting [3]) is 0.017±0.009 mole fraction. In series [1], this compound showed an ED50 of 10 µmol/kg.

Take `O=C1O/C(=C/Br)CCC1c1cccc2ccccc12` (stereo not shown) [BEL, bromoenol lactone]: the “Effect on spontaneous movement / normal motor function” value with spontaneous movement is “did have such an effect”; in the series on spontaneous movement (60 min) it was “suppressed spontaneous movement”. In series [2], the “Effect on formalin induced flinching” value is on record as “suppression”.

As to `COc1ccc2c(c1)c(CC(=O)O)c(C)n2C(=O)c1ccc(Cl)cc1` [indomethacin, reference compound], in series [1] (reference drug at 0.011 mmol/kg), the “% inhibition of carrageenan paw edema” value was determined as 47%.

In the case of `CCC(=O)C(=O)N[C@H]1CCC(=O)OC1` [OA25], the “XI(50) (mole fraction)” value at iPLA2 is “C PLA2: N.D. I PLA2: 0.0142 ± 0.0004 mole fraction”. At cPLA2 (Table 4, cPLA2, at 0.091 mole fraction), the “Highest Conc. (mole fraction) w/ % inhibition” value is “cPLA2: 0.091: 41% iPLA2: N/A”. Also, the “Inhibition of cPLA2” value at cPLA2 is “fairly poor inhibitor”.

Compound `CC(=O)Oc1ccccc1C(=O)[O-].[Na+]` [sodium acetylsalicylate, reference compound] came in with an Analgesic activity in the series on acetic acid writhing (reference drug at 1 mmol/kg) of 93.4%.

As for `CCNC(=O)OC[C@H](CCC(=O)OC)NC(=O)C(=O)CC` [OA26], the “XI(50) (mole fraction)” value amounted to 0.018 ± 0.002 mole fraction on iPLA2 and 0.028 ± 0.017 mole fraction on cPLA2 (Table 4, cPLA2). At cPLA2, the “Inhibition of cPLA2” value is reported as “does”.

By melting point is commonly meant the temperature of the solid-liquid transition. What is called inhibition is the drop in the measured response relative to a control, in per cent. Low readings indicate a response near the control, high ones a response far below the control. One may read the IC50 as the midpoint of a concentration-inhibition curve. A higher IC50 goes with weaker potency in that assay. One may read the ED50 as the dose at which the effect has come halfway, by size or by number of responders.
